The values that follow come from the PolyMetriX glass transition set.

The compound `*/C(C)=C(/*)CCCCC` (repeat unit) returned a glass transition temperature of 180.00 °C.

`*/C(C)=C(/*)SCC` (repeat unit) showed a glass transition temperature of 160.00 °C.

Regarding `*=Nc1ccc(Cc2ccc(NC(=*)CCCC)cc2)cc1` (repeat unit), the glass transition temperature is 106.00 °C.

Take `*=Nc1ccc(Cc2ccc(NC(=*)c3ccccc3)cc2)cc1` (repeat unit): the glass transition temperature is 158.00 °C.

The compound `*CC(*)(C)C(=O)OCCCCCCCCCCOc1ccc(OC(=O)c2ccc(OC)c(Br)c2)cc1` (repeat unit) returned a glass transition temperature of 29.00 °C.

For `*CC(*)(C)C(=O)OCCCCCCCCOc1ccc2cc(C(=O)Oc3ccccc3)ccc2c1` (repeat unit), the glass transition temperature was determined as 34.00 °C.

As for `*CC(*)(C)C(=O)OCCCCCCCOc1ccc2cc(C(=O)Oc3ccccc3)ccc2c1` (repeat unit), the glass transition temperature is 40.00 °C.

Compound `*CC(*)(C)C(=O)OCCCCCCOc1ccc(-c2ccc(C#N)cc2)cc1` (repeat unit) had a glass transition temperature of 63.00 °C.

With `*CC(*)(C)C(=O)OCCCCCCOc1ccc(/N=N/c2ccc(OC)cc2)cc1` (repeat unit), the glass transition temperature amounted to 91.00 °C.

For `*CC(*)(C)C(=O)OCCCCCCOc1ccc(C(=O)Oc2ccc(-c3cccc(OC(=O)c4ccc(OC(=O)c5ccc(OCCCCCCCCCCCC)cc5)cc4)c3)cc2)cc1` (repeat unit), the glass transition temperature was determined as 73.00 °C.

Regarding `*CC(*)(C)C(=O)OCCCCCCOc1ccc(C(=O)Oc2ccc(/N=N/c3ccc(C)cc3)c3ccccc23)cc1` (repeat unit), the glass transition temperature was 40.00 °C.

`*CC(*)(C)C(=O)OCCCCCCOc1ccc(C(=O)Oc2ccc(/N=N/c3ccc(Cl)cc3)c3ccccc23)cc1` (repeat unit): the glass transition temperature was 50.00 °C.

In the case of `*CC(*)(C)C(=O)OCCCCCCOc1ccc(C(=O)Oc2ccc(C#N)cc2)cc1` (repeat unit), the glass transition temperature was determined as 43.00 °C.

Consider `*CC(*)(C)C(=O)OCCCCCCOc1ccc(OC(=O)c2ccc(OCCCC)cc2)cc1` (repeat unit), for which the glass transition temperature amounted to 36.00 °C.

Consider `*CC(*)(C)C(=O)OCCCCCCOc1ccc(OC(=O)c2ccc(OCCCCCC)cc2)cc1` (repeat unit), for which the glass transition temperature is 16.00 °C.

In the case of `*CC(*)(C)C(=O)OCCCCCCOc1ccc(OC(=O)c2ccc(OCCCCCCCC)cc2)cc1` (repeat unit), the glass transition temperature was -1.00 °C.

Consider `*CC(*)(C)C(=O)OCCCCCCc1ccc(/N=N/c2ccc(OC(F)(F)F)cc2)cc1` (repeat unit), for which the glass transition temperature turned out to be 194.50 °C.

Take `*CC(*)(C)C(=O)OCCCCCOc1ccc2cc(C(=O)Oc3ccccc3)ccc2c1` (repeat unit): the glass transition temperature is 48.00 °C.

For `*CC(*)(C)C(=O)OCCCCOc1ccc(OC(=O)c2ccc(OC)cc2)cc1` (repeat unit), the glass transition temperature was found to be 57.00 °C.

With `*CC(*)(C)C(=O)OCCCCOc1ccc(OC(=O)c2ccc(OCCCC)cc2)cc1` (repeat unit), the glass transition temperature came to 51.00 °C.

The compound `*CC(*)(C)C(=O)OCCCCOc1ccc2cc(C(=O)Oc3ccccc3)ccc2c1` (repeat unit) returned a glass transition temperature of 88.00 °C.

As to `*CC(*)(C)C(=O)OCCCCc1ccc(/N=N/c2ccc(OC(F)(F)F)cc2)cc1` (repeat unit), the glass transition temperature came to 203.50 °C.

`*CC(*)(C)C(=O)OCCCCn1c2ccccc2c2ccccc21` (repeat unit) registered a glass transition temperature of 59.20 °C.

In the case of `*CC(*)(C)C(=O)OCCCOc1ccc2cc(C(=O)Oc3ccccc3)ccc2c1` (repeat unit), the glass transition temperature came out at 84.00 °C.

In the case of `*CC(*)(C)C(=O)OCCC[Si](O[Si](C)(C)C)(O[Si](C)(C)C)O[Si](C)(C)C` (repeat unit), the glass transition temperature is 72.4 °C.

In turn, `*CC(*)(C)C(=O)OCCCn1c2ccccc2c2ccccc21` (repeat unit) came in with a glass transition temperature of 113.00 °C.

Turning to `*CC(*)(C)C(=O)OCCN(C)C` (repeat unit), the glass transition temperature came to 28.62 °C.

On to `*CC(*)(C)C(=O)OCCN(C)c1ccc(/N=N/c2ccc(/N=N/c3ccc(C#N)cc3)cc2C)cc1` (repeat unit), for which the glass transition temperature came out at 120.00 °C.

For the compound `*CC(*)(C)C(=O)OCCN(CC)c1ccc(/N=N/c2ccc(OC)cc2)c(C)c1` (repeat unit), the glass transition temperature was 95.00 °C.

`*CC(*)(C)C(=O)OCCN(CC)c1ccc(/N=N/c2nc3ccc([N+](=O)[O-])cc3s2)cc1` (repeat unit): the glass transition temperature was 140.00 °C.

`*CC(*)(C)C(=O)OCCN(CC)c1ccc([N+](=O)[O-])cc1` (repeat unit) came in with a glass transition temperature of 98.00 °C.

In turn, `*CC(*)(C)C(=O)OCCN(CC)c1ccccc1` (repeat unit) registered a glass transition temperature of 37.50 °C.

On to `*CC(*)(C)C(=O)OCCN(CCCC)c1ccc(/N=N/c2ccc(S(=O)(=O)Nc3nccs3)cc2)cc1` (repeat unit), for which the glass transition temperature is 53.00 °C.

For `*CC(*)(C)C(=O)OCCOCCOCC1COCCOCCOCCO1` (repeat unit), the glass transition temperature was found to be 10.00 °C.

As for `*CC(*)(C)C(=O)OCCOCCOCCOc1ccc(/N=N/c2ccc(C#N)cc2)cc1` (repeat unit), the glass transition temperature is 37.00 °C.

Regarding `*CC(*)(C)C(=O)OCCO[N+](=O)[O-]` (repeat unit), the glass transition temperature amounted to 55.00 °C.

Compound `*CC(*)(C)C(=O)OCCOc1ccc(/N=N/c2ccc(OC)cc2)cc1` (repeat unit) showed a glass transition temperature of 109.00 °C.

Turning to `*CC(*)(C)C(=O)OCCOc1ccc(C(=O)Oc2ccc(OCCCC)cc2)cc1` (repeat unit), the glass transition temperature amounted to 137.00 °C.

Compound `*CC(*)(C)C(=O)OCCS(=O)CC` (repeat unit) had a glass transition temperature of 25.00 °C.

Turning to `*CC(*)(C)C(=O)OCCn1c2ccccc2c2cc(/N=N/c3ccc([N+](=O)[O-])cc3)ccc21` (repeat unit), the glass transition temperature worked out at 164.00 °C.

As for `*CC(*)(C)C(=O)OCCn1c2ccccc2c2ccccc21` (repeat unit), the glass transition temperature stood at 148.00 °C.

Turning to `*CC(*)(C)C(=O)OCSC` (repeat unit), the glass transition temperature turned out to be 60.00 °C.

`*CC(*)(C)C(=O)OCc1cc(Cl)ccc1Cl` (repeat unit): the glass transition temperature was 27.80 °C.

`*CC(*)(C)C(=O)OCc1ccc(/C=C/C(=O)Oc2ccc3oc(=O)ccc3c2)cc1` (repeat unit) registered a glass transition temperature of 140.00 °C.

`*CC(*)(C)C(=O)OCc1ccc(Cl)cc1` (repeat unit): the glass transition temperature was found to be 43.60 °C.

On to `*CC(*)(C)C(=O)OCc1ccc(Cl)cc1Cl` (repeat unit), for which the glass transition temperature stood at 19.40 °C.

`*CC(*)(C)C(=O)OCc1ccc(F)cc1F` (repeat unit) yielded a glass transition temperature of 46.00 °C.

`*CC(*)(C)C(=O)OCc1ccc2c(c1)c1ccccc1n2CCCC` (repeat unit) yielded a glass transition temperature of 87.00 °C.

`*CC(*)(C)C(=O)OCc1ccc2c(c1)c1ccccc1n2CCCCCC` (repeat unit) came in with a glass transition temperature of 73.00 °C.

For the compound `*CC(*)(C)C(=O)OCc1ccc2c(c1)c1ccccc1n2CCCCCCCCCCCCCC` (repeat unit), the glass transition temperature came to 26.00 °C.

Regarding `*CC(*)(C)C(=O)OCc1ccc[se]1` (repeat unit), the glass transition temperature stood at 56.00 °C.

The compound `*CC(*)(C)C(=O)OCc1cccc(Cl)c1` (repeat unit) returned a glass transition temperature of 18.2 °C.

In the case of `*CC(*)(C)C(=O)OCc1ccco1` (repeat unit), the glass transition temperature is 111.00 °C.

The compound `*CC(*)(C)C(=O)OCc1ccsc1` (repeat unit) yielded a glass transition temperature of 83.50 °C.

In turn, `*CC(*)(C)C(=O)Oc1c(Cl)c(Cl)c(Cl)c(Cl)c1Cl` (repeat unit) yielded a glass transition temperature of 110.00 °C.

For `*CC(*)(C)C(=O)Oc1c(OC)cc(/C=C/c2ccccc2)cc1OC` (repeat unit), the glass transition temperature turned out to be 140.00 °C.

With `*CC(*)(C)C(=O)Oc1cc(C)cc(C)c1` (repeat unit), the glass transition temperature stood at 106.00 °C.

`*CC(*)(C)C(=O)Oc1ccc(/C=C/c2ccccc2)cc1` (repeat unit) registered a glass transition temperature of 143.00 °C.

`*CC(*)(C)C(=O)Oc1ccc(/N=N/c2ccc(C#N)cc2)cc1` (repeat unit) displayed a glass transition temperature of 185.00 °C.

For the compound `*CC(*)(C)C(=O)Oc1ccc(C#N)cc1` (repeat unit), the glass transition temperature came out at 155.00 °C.

`*CC(*)(C)C(=O)Oc1ccc(C(=O)/C=C/c2ccc(OCc3ccccc3)cc2)cc1` (repeat unit) yielded a glass transition temperature of 152.00 °C.

In the case of `*CC(*)(C)C(=O)Oc1ccc(C(=O)O)cc1` (repeat unit), the glass transition temperature was determined as 110.00 °C.

Turning to `*CC(*)(C)C(=O)Oc1ccc(C(=O)OC)cc1` (repeat unit), the glass transition temperature was found to be 109.00 °C.

Compound `*CC(*)(C)C(=O)Oc1ccc(C(=O)Oc2ccc(-c3ccccc3)cc2)cc1` (repeat unit) registered a glass transition temperature of 100.00 °C.

With `*CC(*)(C)C(=O)Oc1ccc(C(=O)Oc2ccc(Oc3ccccc3)cc2)cc1` (repeat unit), the glass transition temperature was found to be 74.00 °C.

In turn, `*CC(*)(C)OC` (repeat unit) returned a glass transition temperature of 67.00 °C.

The compound `*CC(*)(C)c1ccc(C(C)C)cc1` (repeat unit) returned a glass transition temperature of 140.00 °C.

As for `*CC(*)(CC(=O)O)C(=O)O` (repeat unit), the glass transition temperature was determined as 141.00 °C.

The compound `*CC(*)(CC(=O)OC(C)C)C(=O)OC12CC3CC(C)(CC(C)(C3)C1)C2` (repeat unit) gave a glass transition temperature of 158.00 °C.

Compound `*CC(*)(CC(=O)OC(C)C)C(=O)OC12CC3CC(CC(C3)C1)C2` (repeat unit) displayed a glass transition temperature of 180.00 °C.

`*N=P(N=P(N=S(*)(=O)NCC)(NCC)NCC)(NCC)NCC` (repeat unit) had a glass transition temperature of 4.00 °C.

`*N=P(N=P(N=S(*)(=O)NCCC)(NCCC)NCCC)(NCCC)NCCC` (repeat unit) returned a glass transition temperature of 6.00 °C.

`*Oc1ccc(Oc2ccc(/C(=N/c3ccc(/N=C(\c4ccccc4)c4ccc(*)cc4)cc3)c3ccccc3)cc2)cc1` (repeat unit) returned a glass transition temperature of 176.00 °C.
